Assay results: patent US5808100A, “Chromene compounds and photochromic materials” (Tokuyama Corporation, priority 1995, dated 1998)

Key:
[1] = Durability T1/2 by xenon fadometer FAC-25AX-HC; assay type: physicochemical; conditions: in polymer
Description: (§1) 0.05 Parts of the chromene compound obtained in Example 1 was added to 70 parts of a tetraethylene glycol dimethacrylate, 15 parts of a triethylene glycol dimethacrylate, 10 parts of a glycidyl methacrylate and 5 parts of a 2-hydroethyl methacrylate, and was mixed to a sufficient degree. The mixture solution was poured into a mold constituted by a glass plate and a gasket made from an ethylene/vinyl acetate copolymer and then polymerized. The polymerization was conducted by using an air furnace while gradually raising the temperature up to 30° C. to 90° C. over a period of 18 hours, the temperature being maintained at 90° C. for two hours. After the polymerization, the polymer was taken out from the glass mold.
(§2) Color fading rate [t1/2 ]: Time required by the polymer irradiated for 120 seconds until the absorbancy decreases down to one-half of [ε(120)-ε(0)]. Durability [T1/2 ]: Time required until the absorbency at the maximum absorption wavelength decreases down to 1/2 of the initial absorbency as measured by using a xenon fadometer FAC-25AX-HC manufactured by Suga Shikenki Co.
(§3) The photochromic polymers were obtained in the same manner as described above but using the compounds obtained in Examples 2 to 33 as chromene compounds. For the purpose of comparison, properties of the compounds represented by the following formulas (A), (B), (D) and (E) were also shown in Table 3. [drawing 110]

[2] = Photochromic properties of polymer (2 mm thick) containing the chromene compound, xenon lamp irradiation 120 seconds; assay type: physicochemical; design: key to Color density ε(120)-ε(0): absorbance at λmax after 120 s irradiation minus before, ε(120)-ε(0); conditions: for Color density ε(120)-ε(0): 120 seconds irradiation, 20° C.±1° C.; for Color density ε(120)-ε(0) / ε(0): absorbancy of the polymer not irradiated (initial color): at λmax; for Color fading rate t1/2: time until absorbancy decreases to one-half of [ε(120)-ε(0)]: after 120 seconds irradiation; for Maximum absorption wavelength λMax (developed color tone): polymer after developing color
Description: as §1
The obtained polymer (2 mm thick) was irradiated with light from a xenon lamp L-2480 (300 W) SHL-100 manufactured by Hamamatsu Photonics Co. through an Aero Mass filter (manufactured by Corning Co.) for 120 seconds under the conditions of 20° C.±1° C., beam intensities of 365 nm=2.4 mW/cm^2 and […]=24 μW/cm^2 on the polymer surface to develop color and to measure photochromic properties. The photochromic properties were expressed as described below.
Maximum absorption wavelength (λmax): λmax of the polymer after it has developed color was found by using a spectrophotometer (instantaneous multi-channel photodetector MCPD1000) manufactured by Otsuka Denshi Kogyo Co.
ε(120): Absorbancy of the polymer using light of a maximum absorption wavelength after it was irradiated under the above-mentioned conditions for 120 seconds.
ε(0): Absorbancy of the polymer that has not been irradiated using light of a wavelength same as the maximum absorption wavelength of light with which the polymer was irradiated.
ε(120)-ε(0): Color density
as §2, §3

Row | Compound | Durability T1/2: time until absorbancy at maximum absorption wavelength decreases to 1/2 of the initial [1] [h] | Color density ε(120)-ε(0) [2] | Color fading rate t1/2: time until absorbancy decreases to one-half of [ε(120)-ε(0)] [2] [s] | ε(0): absorbancy of the polymer not irradiated (initial color) [2] | Maximum absorption wavelength λMax (developed color tone) [2] [nm]
1 | Cc1csc(C2(c3scc(C)c3C)C=Cc3c(ccc4ccccc34)O2)c1C [E, reference compound] | 485 | 0.86 | 75 | 0.26 | 514
2 | COc1ccc2c3c(ccc2c1)OC(c1ccc2ccccc2c1)(c1cnco1)C=C3 (centres unmarked) [Compound 11] | 490 | 1.36 | 74 | 0.05 | 476
3 | C1=CC(c2ccco2)(c2cc3ccccc3o2)Oc2ccc3ccccc3c21 (centres unmarked) [Compound 25] | 540 | 1.23 | 59 | 0.06 | 492
4 | C1=CC(c2ccoc2)(c2ccco2)Oc2ccc3ccccc3c21 (centres unmarked) [Compound 5] | 540 | 1.11 | 50 | 0.07 | 466
5 | C1=CC(c2ccc3ccccc3c2)(c2ccco2)Oc2ccc3ccccc3c21 (centres unmarked) [Compound 4] | 490 | 1.10 | 59 | 0.07 | 486
6 | COc1ccc2c3c(ccc2c1)OC(c1ccccc1)(c1ccccc1)C=C3 [B, reference compound] | 240 | 0.74 | 90 | 0.04 | 472
7 | C1=CC(c2ccccc2)(c2cccs2)Oc2ccc3ccccc3c21 (centres unmarked) [D, reference compound] | 490 | 0.51 | 42 | 0.04 | 466
